The record followed here is patent publication US9315503B2, “Kinase inhibitors” (CHIESI FARMACEUTICI S.p.A., priority 2011, dated 2016).

Structures can show the parent of a compound that is named as a salt. Bounds are passed on as bounds.

The target of one assay is T1, p38alpha (Homo sapiens, UniProt Q16539).
T1 construct: purchased Invitrogen PV3304
Nature of the assay: P38Alpha enzyme inhibition assay (Alphascreen kinase activity assay). The class given is biochemical. The conditions noted are these: 100 pM p38alpha, 250 μM ATP, 2 hours pre-incubation at 25° C., read-out: p38α inhibition (IC50 values). The method in brief: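 p38α (100 pM) with ATF-2 fusion protein substrate (0.3 µg/ml) in pH 7.5 HEPES/MgCl2 buffer, 1% DMSO, preincubated 2 h at 25°C with compound. Reaction started with 250 µM ATP, ran 1 h at 25°C, then stopped with EDTA. Phospho-ATF2 antibody detected by AlphaScreen luminescence; IC50 from concentration-response curves.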
For orientation: Alpha assays give light when donor and acceptor beads are brought close together.

The test system of assay [1] is LPS-stimulated TNFα release from PBMCs. As to the kind of experiment: LPS-stimulated PBMC TNFα release assay. The class given is cell-based. To be noted: inhibition of TNFα release, human PBMCs, LPS 10 ng/ml, 18 h, ELISA, read-out: p38α inhibition (IC50 values). The method in brief: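 Healthy-donor human PBMCs, density-gradient isolated, preincubated 1 h at 37 °C with compound in 1% FBS RPMI 1640, then stimulated with LPS (10 ng/ml) for 18 h. Supernatant TNFα by ELISA; IC50 from dose-response of % inhibition of control release, n≥3 experiments.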
(In general: ELISA stands for enzyme-linked immunosorbent assay.)

T1 sequence (Q16539 whole entry): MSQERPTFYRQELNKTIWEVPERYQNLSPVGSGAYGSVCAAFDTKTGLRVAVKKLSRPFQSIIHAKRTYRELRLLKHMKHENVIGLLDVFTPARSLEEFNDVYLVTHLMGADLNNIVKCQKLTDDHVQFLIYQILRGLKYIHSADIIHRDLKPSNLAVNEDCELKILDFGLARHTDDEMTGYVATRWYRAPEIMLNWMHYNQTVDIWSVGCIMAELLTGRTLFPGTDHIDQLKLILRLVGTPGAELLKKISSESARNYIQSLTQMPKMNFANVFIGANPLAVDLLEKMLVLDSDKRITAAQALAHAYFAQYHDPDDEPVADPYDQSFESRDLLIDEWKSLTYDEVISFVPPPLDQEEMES

With `Cc1ccc(-n2nc(C(C)(C)C)cc2NC(=O)N[C@H]2CC[C@H](Oc3ccc4nnc([C@@H]5CCCN5C)n4c3)c3ccccc32)cc1` [Example 72, 1-(5-tert-Butyl-2-p-tolyl-2H-pyrazol-3-yl)-3-{(1S,4S)-4-[3-((S)-1-methyl-pyrrolidin-2-yl)-[1,2,4]triazolo[4,3-a]pyridin-6-yloxy]-1,2,3,4-tetrahydro-naphthalen-1-yl}-urea], the half-maximal inhibitory concentration (IC50) (at p38alpha; in assay [1]) was under 10 nM each time.

For the molecule `CN1CCC[C@H]1c1nnc2ccc(O[C@@H]3CC[C@H](NC(=O)Nc4cc(C(C)(C)C)nn4-c4ccc(O)cc4)c4ccccc43)cn12` [Example 73, 1-[5-tert-Butyl-2-(4-hydroxy-phenyl)-2H-pyrazol-3-yl]-3-{(1S,4R)-4-[3-((S)-1-methyl-pyrrolidin-2-yl)-[1,2,4]triazolo[4,3-a]pyridin-6-yloxy]-1,2,3,4-tetrahydro-naphthalen-1-yl}-urea], the IC50 (on p38alpha; in assay [1]) was under 10 nM in each case.

Regarding `Cc1ccc(-n2nc(C(C)(C)C)cc2NC(=O)N[C@H]2CC[C@@H](Oc3ccc4nnc(N5CCC(C(C)(C)O)CC5)n4c3)c3ccccc32)cc1` [Example 74, 1-(5-tert-Butyl-2-p-tolyl-2H-pyrazol-3-yl)-3-((1S,4R)-4-{3-[4-(1-hydroxy-1-methyl-ethyl)-piperidin-1-yl]-[1,2,4]triazolo[4,3-a]pyridin-6-yloxy}-1,2,3,4-tetrahydro-naphthalen-1-yl)-urea], the IC50 (on p38alpha; in assay [1]) was under 10 nM in each case.

`Cc1ccc(-n2nc(C(C)(C)C)cc2NC(=O)N[C@H]2CC[C@@H](Oc3ccc4nnc(N5CCCC5)n4c3)c3ccccc32)cc1` [Example 75, 1-(5-tert-Butyl-2-p-tolyl-2H-pyrazol-3-yl)-3-[(1S,4R)-4-(3-pyrrolidin-1-yl-[1,2,4]triazolo[4,3-a]pyridin-6-yloxy)-1,2,3,4-tetrahydro-naphthalen-1-yl]-urea]: the IC50 (on p38alpha; in assay [1]) was under 10 nM in each case.

Turning to `Cc1ccc(-n2nc(C(C)(C)C)cc2NC(=O)N[C@H]2CC[C@@H](Oc3ccc4nnc(C(C)(C)N(C)C)n4c3)c3ccccc32)cc1` [Example 76, 1-(5-tert-Butyl-2-p-tolyl-2H-pyrazol-3-yl)-3-{(1S,4R)-4-[3-(1-dimethylamino-1-methyl-ethyl)-[1,2,4]triazolo[4,3-a]pyridin-6-yloxy]-1,2,3,4-tetrahydro-naphthalen-1-yl}-urea partial formate salt], the IC50 (on p38alpha; in assay [1]) was under 10 nM throughout.

With `Cc1ccc(-n2nc(C(C)(C)C)cc2NC(=O)N[C@H]2CC[C@@H](Oc3ccc4nnc(N5CCC[C@@H](CO)C5)n4c3)c3ccccc32)cc1` [Example 77, 1-(5-tert-Butyl-2-p-tolyl-2H-pyrazol-3-yl)-3-{(1S,4R)-4-[3-((R)-3-hydroxymethyl-piperidin-1-yl)-[1,2,4]triazolo[4,3-a]pyridin-6-yloxy]-1,2,3,4-tetrahydro-naphthalen-1-yl}-urea], the IC50 (on p38alpha; in assay [1]) was under 10 nM in each case.

As for `Cc1ccc(-n2nc(C(C)(C)C)cc2NC(=O)N[C@H]2CC[C@@H](Oc3ccc4nnc(N5CCC[C@H](CO)C5)n4c3)c3ccccc32)cc1` [Example 78, 1-(5-tert-Butyl-2-p-tolyl-2H-pyrazol-3-yl)-3-{(1S,4R)-4-[3-((S)-3-hydroxymethyl-piperidin-1-yl)-[1,2,4]triazolo[4,3-a]pyridin-6-yloxy]-1,2,3,4-tetrahydro-naphthalen-1-yl}-urea], the IC50 (on p38alpha; in assay [1]) was under 10 nM in each case.

On to `Cc1ccc(-n2nc(C(C)(C)C)cc2NC(=O)N[C@H]2CC[C@@H](Oc3ccc4nnc(N5CCC(C)(O)CC5)n4c3)c3ccccc32)cc1` [Example 79, 1-(5-tert-Butyl-2-p-tolyl-2H-pyrazol-3-yl)-3-{(1S,4R)-4-[3-(4-hydroxy-4-methyl-piperidin-1-yl)-[1,2,4]triazolo[4,3-a]pyridin-6-yloxy]-1,2,3,4-tetrahydro-naphthalen-1-yl}-urea], for which the IC50 (at p38alpha; in assay [1]) was under 10 nM each time.

`Cc1ccc(-n2nc(C(C)(C)C)cc2NC(=O)N[C@H]2CC[C@@H](Oc3ccc4nnc(C(C)(C)N5CCCC5)n4c3)c3ccccc32)cc1` [Example 80, 1-(5-tert-Butyl-2-p-tolyl-2H-pyrazol-3-yl)-3-{(1S,4R)-4-[3-(1-methyl-1-pyrrolidin-1-yl-ethyl)-[1,2,4]triazolo[4,3-a]pyridin-6-yloxy]-1,2,3,4-tetrahydro-naphthalen-1-yl}-urea]: the IC50 (at p38alpha; in assay [1]) was under 10 nM each time.

Regarding `Cc1ccc(-n2nc(C(C)(C)C)cc2NC(=O)N[C@H]2CC[C@@H](Oc3ccc4nnc(N5CCCC[C@@H]5C)n4c3)c3ccccc32)cc1` [Example 81, 1-(5-tert-Butyl-2-p-tolyl-2H-pyrazol-3-yl)-3-{(1S,4R)-4-[3-((S)-2-methyl-piperidin-1-yl)-[1,2,4]triazolo[4,3-a]pyridin-6-yloxy]-1,2,3,4-tetrahydro-naphthalen-1-yl}-urea], the IC50 (on p38alpha; in assay [1]) was under 10 nM each time.

For `Cc1ccc(-n2nc(C(C)(C)C)cc2NC(=O)N[C@H]2CC[C@@H](Oc3ccc4nnc(N5CCCC[C@H]5C)n4c3)c3ccccc32)cc1` [Example 82, 1-(5-tert-Butyl-2-p-tolyl-2H-pyrazol-3-yl)-3-{(1S,4R)-4-[3-((R)-2-methyl-piperidin-1-yl)-[1,2,4]triazolo[4,3-a]pyridin-6-yloxy]-1,2,3,4-tetrahydro-naphthalen-1-yl}-urea], the IC50 (at p38alpha; in assay [1]) was under 10 nM throughout.

For `Cc1ccc(-n2nc(C(C)(C)C)cc2NC(=O)N[C@H]2CC[C@@H](Oc3ccc4nnc([C@H]5COCCN5C)n4c3)c3ccccc32)cc1` [Example 83, 1-(5-tert-Butyl-2-p-tolyl-2H-pyrazol-3-yl)-3-{(1S,4R)-4-[3-((S)-4-methyl-morpholin-3-yl)-[1,2,4]triazolo[4,3-a]pyridin-6-yloxy]-1,2,3,4-tetrahydro-naphthalen-1-yl}-urea, partial formate salt], the IC50 (at p38alpha; in assay [1]) was under 10 nM throughout.

For the molecule `Cc1ccc(-n2nc(C(C)(C)C)cc2NC(=O)N[C@H]2CC[C@@H](Oc3ccc4nnc([C@@H]5CCCN5CCCO)n4c3)c3ccccc32)cc1` [Example 84, 1-(5-tert-Butyl-2-p-tolyl-2H-pyrazol-3-yl)-3-((1S,4R)-4-{3-[(S)-1-(3-hydroxy-propyl)-pyrrolidin-2-yl]-[1,2,4]triazolo[4,3-a]pyridin-6-yloxy}-1,2,3,4-tetrahydro-naphthalen-1-yl)-urea], the IC50 (on p38alpha; in assay [1]) was under 10 nM each time.

With `Cc1ccc(-n2nc(C(C)(C)C)cc2NC(=O)N[C@H]2CC[C@@H](Oc3ccc4nnc([C@]5(CO)CCCN5C)n4c3)c3ccccc32)cc1` [Example 85, 1-(5-tert-Butyl-2-p-tolyl-2H-pyrazol-3-yl)-3-{(1S,4R)-4-[3-((S)-2-hydroxymethyl-1-methyl-pyrrolidin-2-yl)-[1,2,4]triazolo[4,3-a]pyridin-6-yloxy]-1,2,3,4-tetrahydro-naphthalen-1-yl}-urea], the concentration for half-maximal inhibition (IC50) (on p38alpha; in assay [1]) was under 10 nM throughout.

Take `Cc1ccc(-n2nc(C(C)(C)C)cc2NC(=O)N[C@H]2CC[C@@H](Oc3ccc4nnc(C5CN(C)CCN5C)n4c3)c3ccccc32)cc1` (stereo partly drawn) [Example 86, 1-(5-tert-Butyl-2-p-tolyl-2H-pyrazol-3-yl)-3-{(1S,4R)-4-[3-(1,4-dimethyl-piperazin-2-yl)-[1,2,4]triazolo[4,3-a]pyridin-6-yloxy]-1,2,3,4-tetrahydro-naphthalen-1-yl}-urea formate salt]: the IC50 (on p38alpha; in assay [1]) was under 10 nM in each case.

Regarding `Cc1ccc(-n2nc(C(C)(C)C)cc2NC(=O)N[C@H]2CC[C@@H](Oc3ccc4nnc([C@@H]5CC(C)(C)CN5C)n4c3)c3ccccc32)cc1` [Example 87, 1-(5-tert-Butyl-2-p-tolyl-2H-pyrazol-3-yl)-3-{(1S,4R)-4-[3-((S)-1,4,4-trimethyl-pyrrolidin-2-yl)-[1,2,4]triazolo[4,3a]pyridin-6-yloxy]-1,2,3,4-tetrahydro-naphthalen-1-yl}-urea], the IC50 (on p38alpha; in assay [1]) was under 10 nM in each case.

Take `Cc1ccc(-n2nc(C(C)(C)C)cc2NC(=O)N[C@H]2CC[C@@H](Oc3ccc4nnc([C@H]5CCCN(C)C5)n4c3)c3ccccc32)cc1` [Example 88, 1-(5-tert-Butyl-2-p-tolyl-2H-pyrazol-3-yl)-3-{(1S,4R)-4-[3-((S)-1-methyl-piperidin-3-yl)-[1,2,4]triazolo[4,3-a]pyridin-6-yloxy]-1,2,3,4-tetrahydro-naphthalen-1-yl}-urea]: the concentration for half-maximal inhibition (IC50) (at p38alpha; in assay [1]) was under 10 nM throughout.

With `Cc1ccc(-n2nc(C(C)(C)C)cc2NC(=O)N[C@H]2CC[C@@H](Oc3ccc4nnc([C@@H]5CCCN(C)C5)n4c3)c3ccccc32)cc1` [Example 89, 1-(5-tert-Butyl-2-p-tolyl-2H-pyrazol-3-yl)-3-{(1S,4R)-4-[3-((R)-1-methyl-piperidin-3-yl)-[1,2,4]triazolo[4,3-a]pyridin-6-yloxy]-1,2,3,4-tetrahydro-naphthalen-1-yl}-urea], the IC50 (at p38alpha; in assay [1]) was under 10 nM throughout.

On to `Cc1ccc(-n2nc(C(C)(C)C)cc2NC(=O)N[C@H]2CC[C@@H](Oc3ccc4nnc([C@@H]5CCN(C)C5)n4c3)c3ccccc32)cc1` [Example 90, 1-(5-tert-Butyl-2-p-tolyl-2H-pyrazol-3-yl)-3-{(1S,4R)-4-[3-((R)-1-methyl-pyrrolidin-3-yl)-[1,2,4]triazolo[4,3-a]pyridin-6-yloxy]-1,2,3,4-tetrahydro-naphthalen-1-yl}-urea], for which the IC50 (on p38alpha; in assay [1]) was under 10 nM in each case.

For orientation: IC50 means the concentration that gives 50% inhibition.
